In patent US8030286B2, “Methods and means for increasing resistance to cell damage” (University of Medicine and Dentistry of New Jersey, priority 2004, dated 2011):

Assays:
[1] = test system: eEF2 kinase+/+ MEFs; assay: MTT viability assay, wild type MEFs; format: cell-based, mouse
Procedure: (§1) MTT Survival Assay: MEFs used in this study (2×10^3 cells per well of a 96 well plate) are incubated in the presence of indicated drugs for 24 hours. Cell viability is determined using the standard MTT assay^30. Each experiment is repeated three times for each drug and each cell line using three parallel wells for each drug concentration. For colony formation assay cells are treated with indicated drugs for 24 hours and replated with complete DMEM at low density (500 cells per well in 6-well plate) in duplicate. After 10 days colonies are stained with 10 mg/ml methylene blue (Sigma Inc.) in 50% methanol.
(§2) The possible correlation between activation of eEF2 kinase and the resultant phosphorylation of eEF2 and Ca^2+ ionophore-induced cell death is addressed by comparing the viability of wild type and eEF2 kinase knockout mouse embryonic fibroblasts (MEFs) after incubation of each with different concentrations of ionomycin.

[2] = test system: eEF2 kinase−/− MEFs; assay: MTT viability assay, eEF2 kinase knockout MEFs; format: cell-based, mouse
Procedure: as §1, §2

[3] = test system: eEF2K-deficient cells; assay: Cell death in phase-contrast images, eEF2K-deficient MEFs; format: cell-based, mouse; conditions: 1.6 μM doxorubicin, 24 hours
[4] = test system: wild type mouse embryonic fibroblasts (MEFs); assay: Cell death in phase-contrast images, wild type MEFs; format: cell-based; conditions: 1.6 μM doxorubicin, 24 hours

Cc1ccc(C(=O)Cn2c3c(sc2=N)CCCC3)cc1 [PFTα, pifithrin α]
effect of p53 inactivation on drug sensitivity (DOX) ([1]; DOX 24 h, MTT assay): strongly decreasing sensitivity
effect of p53 inactivation on drug sensitivity (DOX) ([2]; DOX 24 h, MTT assay): only slightly affected

COc1cccc2c1C(=O)c1c(O)c3c(c(O)c1C2=O)C[C@@](O)(C(=O)CO)C[C@@H]3O[C@H]1C[C@H](N)[C@H](O)[C@H](C)O1 [doxorubicin]
cell death [3]: much less cell death
cell death [4]: significant cell death

C[C@H](CCC(=O)O)C[C@H](C)C[C@H](C)C(=O)/C=C(\O)[C@H](C)C[C@H](C)C/C=C/[C@@H](C)[C@@H](O)[C@@H](C)[C@@H](O)C[C@@H]1CC[C@@](C)([C@H]2CC[C@@](C)([C@@H](C)O)O2)O1 [ionomycin]
cells die ([1]; 10 μM ionomycin, incubation for 24 h): approximately 70%
cell viability ([1]; increasing concentrations of ionomycin from 1 to 10 μM, 24 h): progressive decrease of cell viability
effect on the viability ([2]; same concentrations of ionomycin (1 to 10 μM), 24 h): virtually no effect
